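Five concentrations, 48 hours, 96-well plates. At the TGI there is no net growth.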
Assays:
Test in all cases: DTP human tumour cell line panel, 48 h
[1] = tested on: 786-0 renal
[2] = tested on: CAKI-1 renal
[3] = tested on: HCT-116 colon
[4] = tested on: HT29 colon
[5] = tested on: IGROV1 ovarian
[6] = tested on: LOX IMVI melanoma
[7] = tested on: M14 melanoma
[8] = tested on: MDA-MB-231 breast
[9] = tested on: MDA-MB-435
[10] = tested on: NCI-H460 lung
[11] = tested on: NCI-H522 lung
[12] = tested on: OVCAR-4 ovarian
[13] = tested on: SW-620 colon
[14] = tested on: UO-31 renal

Measured: TGI

COc1ccc2oc(=O)cc(C)c2c1
> 100 µM: all assays above

Reference: PubChem BioAssay (NCI)
